Results reported in ChEMBL document CHEMBL3137667, “[Drug-induced liver injury; fourteenth updated edition of the bibliographic database of liver injuries and related drugs]” (Gastroenterol Clin Biol, 2004).

What was measured:
[1] = Highest frequency of moderate liver toxicity observed during clinical trials, expressed as a percentage. [column '% BIOL' in source]; conditions: human
[2] = human
[3] = human, serum
[4] = human; remark: listed apart in the source
[5] = human; remark: listed apart in the source
[6] = human; remark: listed apart in the source
[7] = human; remark: listed apart in the source
[8] = human, serum; remark: listed apart in the source
[9] = human; remark: listed apart in the source
[10] = human; remark: listed apart in the source
[11] = human; remark: listed apart in the source
[12] = human; remark: listed apart in the source
[13] = human, serum, 4383 h
[14] = Highest frequency of acute liver toxicity observed during clinical trials, expressed as a percentage. [column '% AIGUE' in source]; conditions: human
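For Hepatotoxicity (association with vascular disease) in this document: count of indexed literature references reporting vascular liver injury in humans, e.g. peliosis hepatitis, hepatic veno-occlusive disease or Budd-Chiari syndrome.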
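For Hepatotoxicity (benign tumour) in this document: value is a count of indexed literature references citing a benign tumour confirmed by histopathology.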
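For Hepatotoxicity (choleostasis) in this document: human cholestatic liver injury, shown by histopathology or by peak ALT or AST elevation over alkaline phosphatase ratio below 2, value counts indexed literature reports.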
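For Hepatotoxicity (chronic liver disease) in this document: chronic liver injury confirmed by histopathology or persistently raised serum aminotransferase activity beyond 6 months, value given as the count of indexed literature references.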
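For Hepatotoxicity (cirrhosis) in this document: value is a count of indexed literature references reporting cirrhosis confirmed by histopathology.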
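For Hepatotoxicity (cytolytic) in this document: human cytolytic liver injury, shown by histopathology or by a ratio above 5 of peak ALT or AST elevation to alkaline phosphatase elevation, value counts indexed references.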
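For Hepatotoxicity (granulomatous hepatitis) in this document: value is a count of indexed literature references reporting granulomatous liver disease confirmed by histopathology.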
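For Hepatotoxicity (malignant tumour) in this document: malignant tumour confirmed by histopathology, value gives the count of indexed literature references reporting it.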
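For Hepatotoxicity (severe hepatitis) in this document: human clinical data: severe hepatitis, meaning potentially life-threatening liver failure or clinically observed cases, the value counts how many indexed literature references report it.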
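For Hepatotoxicity (steatosis) in this document: steatosis confirmed by histopathology, value is the count of indexed references.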

| Molecule | Hepatotoxicity (moderate) [1] [%] | Hepatotoxicity (malignant tumour) [2] | Hepatotoxicity (acute) [3] | Hepatotoxicity (steatosis) [4] | Hepatotoxicity (choleostasis) [5] | Hepatotoxicity (granulomatous hepatitis) [6] | Hepatotoxicity (severe hepatitis) [7] | Hepatotoxicity (moderate) [8] | Hepatotoxicity (association with vascular disease) [9] | Hepatotoxicity (cirrhosis) [10] | Hepatotoxicity (benign tumour) [11] | Hepatotoxicity (cytolytic) [12] | Hepatotoxicity (chronic liver disease) [13] | Hepatotoxicity (acute) [14] [%] |
| --- | --- | --- | --- | --- | --- | --- | --- | --- | --- | --- | --- | --- | --- | --- |
| NS(=O)(=O)Cc1noc2ccccc12 [ZONISAMIDE] | 4.2 | 0 | 0 | 0 | 0 | 0 | 0 | 2 | 0 | 0 | 0 | 0 | 0 | 0 |
| COc1ccc(-c2noc(CC(=O)O)c2-c2ccc(OC)cc2)cc1 [MOFEZOLAC] | 0 | 0 | 0 | 0 | 0 | 0 | 0 | 1 | 0 | 0 | 0 | 0 | 0 | 0 |
| CN(C)C(=O)CCCOC(=O)C(C)(C)Oc1ccc(Cl)cc1 [CLOFIBRIDE] | 0 | 0 | 0 | 0 | 0 | 0 | 0 | 1 | 0 | 0 | 0 | 0 | 0 | 0 |
| C(=N\NC1=NCCN1)/c1c2ccccc2c(/C=N/NC2=NCCN2)c2ccccc12 [BISANTRENE] | 49 | 0 | 1 | 0 | 1 | 0 | 0 | 4 | 0 | 0 | 0 | 0 | 0 | 0 |
| CC#CCC(C)[C@H](O)/C=C/[C@@H]1[C@H]2c3cccc(CCCC(=O)O)c3O[C@H]2C[C@H]1O (some centres undefined) [BERAPROST] | 13 | 0 | 0 | 0 | 0 | 0 | 0 | 1 | 0 | 0 | 0 | 0 | 0 | 0 |
| CC(=N)N1CC[C@H](SC2=C(C(=O)O)N3C(=O)[C@H]([C@@H](C)O)[C@H]3C2)C1.O=C(O)CCNC(=O)c1ccccc1 | 38.5 | 0 | 1 | 0 | 1 | 0 | 0 | 60 | 0 | 0 | 0 | 0 | 0 | 0 |
| COLISTIN | 0 | 0 | 0 | 0 | 0 | 0 | 0 | 1 | 0 | 0 | 0 | 0 | 0 | 0 |
| Cc1cc2c(cc1CC(=O)c1sccc1S(=O)(=O)Nc1onc(C)c1Cl)OCO2 [SITAXENTAN] | 0 | 0 | 0 | 0 | 0 | 0 | 0 | 1 | 0 | 0 | 0 | 0 | 0 | 0 |
| O=CN(O)CCCP(=O)(O)O [FOSMIDOMYCIN] | 7.7 | 0 | 0 | 0 | 0 | 0 | 0 | 1 | 0 | 0 | 0 | 0 | 0 | 0 |
| CCCN1CCO[C@@H]2c3cc(O)ccc3CC[C@H]21 [NAXAGOLIDE] | 11.1 | 0 | 0 | 0 | 0 | 0 | 0 | 1 | 0 | 0 | 0 | 0 | 0 | 0 |
| CCc1nc(N)nc(N)c1-c1ccc(Cl)cc1.Nc1ccc(S(=O)(=O)c2ccc(N)cc2)cc1 | 25.3 | 0 | 3 | 0 | 0 | 0 | 0 | 1 | 0 | 0 | 0 | 1 | 0 | 2.9 |
| CC(Cc1ccccc1)(NC(=O)CN)c1ccccc1 (centres undefined) [REMACEMIDE] | 0.9 | 0 | 0 | 0 | 0 | 0 | 0 | 3 | 0 | 0 | 0 | 0 | 0 | 0 |
| N=C(N)NCCCCCCC(=O)NC(O)C(=O)NCCCCNCCCN (centres undefined) | 3.6 | 0 | 0 | 0 | 0 | 0 | 0 | 1 | 0 | 0 | 0 | 0 | 0 | 0 |
| C[C@@](Cc1ccc(O)c(O)c1)(NN)C(=O)O.O [CARBIDOPA] | 0 | 0 | 1 | 1 | 1 | 0 | 0 | 0 | 0 | 0 | 0 | 0 | 0 | 0 |
| COC(=O)Nc1nc2cc(C(=O)c3ccc(F)cc3)ccc2[nH]1 [FLUBENDAZOLE] | 6 | 0 | 1 | 0 | 0 | 0 | 0 | 1 | 0 | 0 | 0 | 1 | 0 | 0 |
| CCOC(=O)C1=C[C@@H](OC(CC)CC)[C@H](NC(C)=O)[C@@H](N)C1 [OSELTAMIVIR] | 0 | 0 | 1 | 0 | 0 | 0 | 0 | 0 | 0 | 0 | 0 | 0 | 0 | 0 |
